US20040235869A1, “Nucleoside analog inhibitors of reverse transcriptase” (priority 2003, published 2004)

Tests used:
[1] = nitrogen at the 3'-branched group; Hossain et al., 1993; Huang et al., 1995; cited from earlier work
[2] = biological target: HIV reverse transcriptase (Human immunodeficiency virus type 1 group M subtype B, UniProt P04585); assay: HIV reverse transcriptase inhibition primer extension experiment (incorporation of nucleoside triphosphates into DNA by RT, chain termination); assay type: biochemical; conditions: triphosphate form; template SEQ ID NO:1, primer SEQ ID NO:2; terminated product 38 instead of 53 base pairs; FIG. 2
Text: For primer extension experiments (Example 3), some of the novel nucleoside analog inhibitors were converted to triphosphate form in vitro, such as occurs in mammalian cells by endogenous enzymes.
Once incorporated into the growing DNA strand, transcription is terminated because the nucleosides lack the necessary 3′ hydroxyl group.
The method is analogous to the Sanger sequencing. Specifically, in the presence of a template and four natural nucleotide triphosphates (dATP, dGTP, dCTP and dTTP), a radiolabeled primer is extended to full length by RT, as indicated by a single band on the sequencing gel. Addition of ddTTP, which competes with dTTP, results in the termination of primer extension at the positions of nucleotides opposite adenosine in the template strand. AZTTP, which is also a chain terminator, gives a similar result as ddTTP. If a compounds, e.g., (V) to (VII), in triphosphate form has a branched 3′-group that cannot be accommodated in the 3′-pocket of RT, the compound is not a substrate for RT. Therefore, it will be unable to compete with dTTP, resulting in a completed, extended product. […]
Template cagatagtcttcacgaggcaggtcgtcttgtcctggtActcgtttgcgttccg (SEQ ID NO:1) and primer […] […] With this template and primer, there is only one adenosine in the template to be read into the growing chain as a thymidine (capital and boldface in SEQ ID NO:1). […]

[3] = 300 mg x 2/day; cited from earlier work
[4] = taken with ddI (Videx or Videx EC); cited from earlier work

Structure (SMILES): Cc1cn([C@H]2CC([N+](=O)[O-])[C@@H](CO)O2)c(=O)[nH]c1=O (some centres unmarked) [molecule (I)]
- effectiveness in vivo [1]: ineffective in vivo

Structure (SMILES): Cc1cn([C@H]2C[C@H](N=[N+]=[N-])[C@@H](CO[P@](=O)(O)O[P@](=O)(O)OP(=O)(O)O)O2)c(=O)[nH]c1=O [AZTTP, AZT-triphosphate]
- chain termination of the primer extension opposite the only A in the template (substrate for RT) [2]: chain terminators

Structure (SMILES): Nc1nc(NC2CC2)c2ncn([C@H]3C=C[C@@H](CO)C3)c2n1 [Ziagen, abacavir]
- Serious allergic reactions, share of patients [3]: Serious allergic reactions in about 3-5% of patients.

Structure (SMILES): Cc1cn([C@H]2CC[C@@H](COP(=O)(O)OP(=O)(O)OP(=O)(O)O)O2)c(=O)[nH]c1=O [ddTTP]
- chain termination of the primer extension opposite the only A in the template (substrate for RT) [2]: chain terminators

Structure (SMILES): CC(C)OC(=O)OCOP(=O)(CO[C@H](C)Cn1cnc2c(N)ncnc21)OCOC(=O)OC(C)C [Viread, tenofovir DF]
- increase of ddI levels in the blood [4]: ≤ 60%, causing increased
